Laboratory results taken from patent publication US9828352B2, “Phenyl carbamates and their use as inhibitors of the fatty acid amide hydrolase (FAAH) enzyme and modulators of the D3 dopamine receptor (D3DR)” (FONDAZIONE ISTITUTO ITALIANO DI TECNOLOGIA, priority 2013, dated 2017).

What was measured:
rat FAAH = target: T1, rat FAAH (Rattus norvegicus, UniProt P97612); experiment: Rat Fatty Acid Amide Hydrolase (FAAH) assay, rat brain homogenate, [3H]-anandamide; assay type: biochemical; details: 3 separate experiments, each in duplicate
T1 construct: from tissue; host or cells: male Sprague Dawley rat brain, total homogenate
T1 sequence (P97612 1-579): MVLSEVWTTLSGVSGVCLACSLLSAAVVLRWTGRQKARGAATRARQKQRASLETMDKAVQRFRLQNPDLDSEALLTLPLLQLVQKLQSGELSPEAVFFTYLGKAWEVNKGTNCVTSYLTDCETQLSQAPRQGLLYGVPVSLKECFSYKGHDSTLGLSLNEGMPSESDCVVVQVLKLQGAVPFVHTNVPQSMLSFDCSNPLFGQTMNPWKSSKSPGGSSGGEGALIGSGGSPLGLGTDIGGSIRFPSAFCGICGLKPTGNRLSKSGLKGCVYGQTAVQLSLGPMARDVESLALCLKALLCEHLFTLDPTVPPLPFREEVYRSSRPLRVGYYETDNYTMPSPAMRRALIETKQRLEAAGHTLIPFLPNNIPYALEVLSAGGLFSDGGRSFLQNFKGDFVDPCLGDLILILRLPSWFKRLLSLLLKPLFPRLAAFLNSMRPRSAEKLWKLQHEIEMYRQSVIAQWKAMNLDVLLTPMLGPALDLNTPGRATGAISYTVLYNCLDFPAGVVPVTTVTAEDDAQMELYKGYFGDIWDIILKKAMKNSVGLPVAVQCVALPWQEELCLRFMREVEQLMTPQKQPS
Protocol: Rat Fatty Acid Amide Hydrolase (FAAH) Assay
Male Sprague Dawley rat brains were homogenized in a potter in 20 mM Tris-HCl pH7.4, 0.32M sucrose, protein concentration was measured and samples aliquot stored at −80° C. until use.
FAAH activity was measured using 50 μg of total rat brain homogenate pre-incubated for 10 minutes at 37° C. in 445.5 μL of assay buffer (50 mM Tris-HCl pH7.4, 0.05% Fatty acid-free BSA) with 4.5 μL of inhibitor at appropriate concentration in DMSO, or DMSO alone to measure FAAH total activity. The blank (no activity sample) was prepared with 445.5 μL of assay buffer and 4.5 μL of DMSO without the 50 μg of total rat brain homogenate.
After 10 minutes of pre-incubation, the reaction was started by the addition of 50 μL of substrate for 30 min at 37° C. The substrate is prepared in assay buffer in order to achieve the final concentration of 1 μM Arachidonoyl-ethanolamide (N.90050, Cayman Chemical) and 0.6 nM Anandamide [ethanolamine-1-^3H] (American Radiolabeled Chemicals Inc., ART.0626, 1 mCi/ml, specific activity 60 Ci/mmol).
The reaction was stopped by with the addition of cold 1:1 CHCl3/Methanol. After 10 minutes of centrifugation (845×g at 4° C.) 600 μL of the aqueous phase was transferred into scintillation vials previously filled with 3 mL of scintillation fluid (ULTIMA GOLD, Cat. 6013329, Perkin Elmer Inc.).
Radioactivity was measured by liquid scintillation counting (Microbeta2 Lumijet, Perkin Elmer Inc.).
(§1) EC50 or IC50 values (concentrations causing half-maximal response or inhibition of control agonist response) were determined by non-linear regression analysis of the Log [concentration]/response curves generated with mean replicate values using a four parameter Hill equation curve fitting with GraphPad Prism 5 (GraphPad Software Inc., CA—USA).

human-D3R = target: T2, human-D3R (Homo sapiens, UniProt P35462); experiment: D3 Dopamine Receptor (D3dR) cellular assay, cAMP HTRF functional assay in human-D3R expressing CHO cells; assay type: cell-based
T2 construct: expressed in transfected cells; host or cells: CHO cell line stably transfected with human D3R
Protocol: D3 Dopamine Receptor (D3dR) Cellular Assay
Activity on D3R was tested with a cAMP functional assay on a stably transfected human-D3R expressing CHO cell line. On the day of the assay performance the cells were washed twice with PBS (w/o calcium and magnesium) and dislodged with a cell scraper, transferred to PBS, centrifuged and re-suspended in HBSS (w/o calcium and magnesium), supplemented with 1 g/L glucose and […] IBMX. The cell suspension was seeded on a 384 well plate (Greiner) and the assay was performed by adding compounds either test compounds alone (for agonist activity), or with test compound after a pre-incubation with 10 nM Dopamine as a stimulant (for antagonistic activity). After incubation (30 min at RT) the cell stimulation was stopped by adding the detecting reagents (cAMP-XL665 and anti-cAMP cryptate) diluted in lysis buffer. The signal was quantified by Homogenous Time-Resolved Fluorescence (HTRF) on a Perkin Elmer Envision plate reader after one hour of incubation at RT.
as §1

human FAAH-1 = target: T3, human FAAH-1 (Homo sapiens, UniProt O00519); experiment: Human recombinant Fatty Acid Amide Hydrolase-1 (FAAH-1) fluorescent assay, Hek293-hFAAH-1 membranes; assay type: biochemical; details: 3 separate experiments, each in triplicate
T3 construct: expressed in transfected cells; host or cells: Hek293 cells stably transfected with human FAAH-1; membrane preparation
T3 sequence (O00519 1-579): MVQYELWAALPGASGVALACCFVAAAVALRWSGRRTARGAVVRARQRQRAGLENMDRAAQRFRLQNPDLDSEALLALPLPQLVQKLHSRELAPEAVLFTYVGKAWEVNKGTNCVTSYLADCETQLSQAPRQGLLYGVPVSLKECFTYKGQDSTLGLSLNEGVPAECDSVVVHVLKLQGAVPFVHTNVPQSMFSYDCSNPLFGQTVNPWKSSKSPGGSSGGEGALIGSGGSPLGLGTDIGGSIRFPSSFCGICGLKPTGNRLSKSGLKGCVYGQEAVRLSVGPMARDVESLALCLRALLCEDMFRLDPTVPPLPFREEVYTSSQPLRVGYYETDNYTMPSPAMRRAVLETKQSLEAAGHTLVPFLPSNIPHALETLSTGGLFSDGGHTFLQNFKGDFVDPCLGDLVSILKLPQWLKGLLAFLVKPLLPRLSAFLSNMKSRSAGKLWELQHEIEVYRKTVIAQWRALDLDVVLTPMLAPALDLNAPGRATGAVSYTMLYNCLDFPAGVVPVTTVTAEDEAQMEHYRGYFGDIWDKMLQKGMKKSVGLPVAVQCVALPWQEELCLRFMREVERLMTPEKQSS
Protocol: Human Recombinant Fatty Acid Amide Hydrolase-1 (FAAH-1) Fluorescent Assay
Hek293 cells stably transfected with human FAAH-1 were maintained in DMEM containing 10% FBS, 1% pen/strep and 500 μg/mL G418 to maintain selective pressure. Cells were scraped off with cold PBS1× pH7.4 from plates and collected by centrifugation (500 g, 10 minutes, 4° C.); cells pellets were re-suspended in homogenizing buffer (20 mM Tris-HCl pH7.4, 0.32M sucrose), disrupted by sonication (10 pulses, 5 times) and centrifuged at 800×g for 15 minutes at 4° C.; the resultant supernatants collected were then centrifuged at 105,000×g for 1 hr at 4° C. and membranes pellets were re-suspended in PBS1× pH7.4.
Protein concentration was measured and samples aliquot stored at −80° C. until use.
The blank (no activity) was prepared using 180 μL of assay buffer without Hek293-hFAAH-1 membrane preparation and 10 μL of DMSO.
After 50 minutes of pre-incubation of compounds with the enzyme at 37° C., the reaction was started by the addition of 10 μL of substrate (AMC Arachidonyl Amide, N.10005098, Cayman Chemical) for 30 min at 37° C. The substrate is prepared in Ethanol in order to achieve the final concentration of 2 μM.
Fluorescence was detected with Tecan Infinite M200 nanoquant (Tecan Group Ltd.) at an excitation wavelength 350 nm and an emission wavelength 460 nm.
as §1

T2 sequence (P35462 whole entry): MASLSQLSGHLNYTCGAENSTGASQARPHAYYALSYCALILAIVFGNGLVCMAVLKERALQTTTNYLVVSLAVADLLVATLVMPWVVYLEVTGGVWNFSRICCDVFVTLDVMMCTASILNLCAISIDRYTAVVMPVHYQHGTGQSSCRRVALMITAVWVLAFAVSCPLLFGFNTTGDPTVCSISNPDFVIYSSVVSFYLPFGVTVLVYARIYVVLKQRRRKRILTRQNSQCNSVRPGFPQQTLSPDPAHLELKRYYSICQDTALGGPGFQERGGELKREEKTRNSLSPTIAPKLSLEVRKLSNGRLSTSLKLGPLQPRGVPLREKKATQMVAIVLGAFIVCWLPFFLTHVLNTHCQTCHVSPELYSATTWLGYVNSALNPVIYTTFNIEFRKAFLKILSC

Compound: NC(=O)c1cccc(-c2ccc(OC(=O)NCCCN3CCN(c4cccc(Cl)c4Cl)CC3)cc2)c1 [Example 6, [4-(3-carbamoylphenyl)phenyl] N-[3-[4-(2,3-dichlorophenyl)piperazin-1-yl]propyl]carbamate]
- IC50 (rat FAAH): 1.5 nM

Compound: COc1ccccc1N1CCN(CCCCNC(=O)Oc2cccc(-c3cccc(C(N)=O)c3)c2)CC1 [Example 1, [3-(3-carbamoylphenyl)phenyl] N-[4-[4-(2-methoxyphenyl)piperazin-1-yl]butyl] carbamate]
- IC50 (rat FAAH): 0.94 nM

Compound: NC(=O)c1cccc(-c2cccc(OC(=O)NCCCCN3CCN(c4cccc(Cl)c4Cl)CC3)c2)c1 [Example 2, [3-(3-carbamoylphenyl)phenyl] N-[4-[4-(2,3-dichlorophenyl)piperazin-1-yl]butyl] carbamate]
- IC50 (rat FAAH): 0.3 nM

Compound: NC(=O)c1cccc(-c2cccc(OC(=O)NCCCN3CCN(c4ccccc4)CC3)c2)c1 [Example 4, [3-(3-carbamoylphenyl)phenyl] N-[3-(4-phenylpiperazin-1-yl)propyl]carbamate]
- IC50 (rat FAAH): 0.32 nM

Compound: NC(=O)c1cccc(-c2ccc(OC(=O)NCCCCN3CCN(c4cccc(Cl)c4Cl)CC3)cc2)c1 [Example 7, [4-(3-carbamoylphenyl)phenyl] N-[4-[4-(2,3-dichlorophenyl)piperazin-1-yl]butyl]carbamate]
- IC50 (rat FAAH): 0.72 nM

Compound: O=C(NCCCN1CCN(c2ccccc2)CC1)Oc1cccc(-c2ccccc2)c1 [Example 5, (3-phenylphenyl) N-[3-(4-phenylpiperazin-1-yl)propyl]carbamate]
- IC50 (rat FAAH): 3 nM
- Emax (human-D3R; CHO, 0.5 h, % of 300 nM Dopamine response, read-out: Dopamine D3 % of Agonist Activity): 89.7%
- EC50 (human-D3R; cAMP assay, CHO human-D3R, one experiment in duplicate): 13 nM
- IC50 (human FAAH-1): 3.4 nM

Compound: NC(=O)c1cccc(-c2cccc(OC(=O)NCCCN3CCN(c4cccc(Cl)c4Cl)CC3)c2)c1 [Example 3, [3-(3-carbamoylphenyl)phenyl] N-[3-[4-(2,3-dichlorophenyl)piperazin-1-yl]propyl]carbamate]
- IC50 (rat FAAH): 0.11 nM
